The source made the active and inactive calls. No cut-off for these calls is given here.
Legend:
[1] = biological target: G-protein coupled receptor 146 (Homo sapiens) (UniProt Q96CH1); test: Activation of human GPR146 receptor expressed in HEK293 cells assessed as increase in dynamic mass redistribution response by DMR assay; format: cell-based
[2] = biological target: G-protein coupled receptor 146 (Homo sapiens) (UniProt Q96CH1); test: Activation of human GPR146 receptor expressed in HK2 cells assessed as increase in dynamic mass redistribution response by DMR assay; format: cell-based
[3] = biological target: G-protein coupled receptor 146 (Homo sapiens) (UniProt Q96CH1); test: Agonist activity at human GPR146 receptor expressed in HEK293 cells assessed as recruitment of beta-arrestin up to 100 uM by PathHunter assay; format: cell-based
[4] = Drug uptake in human HK2 cells at 0.1 to 0.5 uM using Cy3-labeled compound by fluorescence microscopy; format: ADME, cell-based; conditions: hk-2, 0.5 µM
[5] = biological target: G-protein coupled receptor 146 (Homo sapiens) (UniProt Q96CH1); test: Activation of human GPR146 expressed in HEK293 cells assessed as increase in dynamic mass redistribution response up to 100 uM by DMR assay; format: cell-based
[6] = Drug uptake in CHOK1 cells expressing human GPR146 at 0.1 to 0.5 uM by using Cy3-labeled compound by fluorescence microsocpy; format: ADME, cell-based, Cricetulus griseus; conditions: chinese hamster, cho-k1, 0.5 µM
[7] = Drug uptake in CHOK1 cells at 0.1 to 0.5 uM by using Cy3-labeled compound by fluorescence microsocpy; format: ADME, cell-based, Cricetulus griseus; conditions: chinese hamster, cho-k1, 0.5 µM
[8] = biological target: G-protein coupled receptor 146 (Homo sapiens) (UniProt Q96CH1); test: Activation of human GPR146 expressed in HK2 cells assessed as increase in dynamic mass redistribution response up to 100 uM by DMR assay; format: cell-based
[9] = biological target: G-protein coupled receptor 146 (Homo sapiens) (UniProt Q96CH1); test: Activation of human GPR146 expressed in CHO-K1 cells assessed as increase in dynamic mass redistribution response upto 100 uM by DMR assay; format: cell-based
[10] = biological target: Glucagon-like peptide 1 receptor (Homo sapiens) (UniProt P43220); test: Activation of human GLP1R expressed in CHO-K1 cells assessed as increase in dynamic mass redistribution response upto 100 uM by DMR assay; format: cell-based
Chain of Glucagon-like peptide 1 receptor (Homo sapiens) (P43220 whole entry): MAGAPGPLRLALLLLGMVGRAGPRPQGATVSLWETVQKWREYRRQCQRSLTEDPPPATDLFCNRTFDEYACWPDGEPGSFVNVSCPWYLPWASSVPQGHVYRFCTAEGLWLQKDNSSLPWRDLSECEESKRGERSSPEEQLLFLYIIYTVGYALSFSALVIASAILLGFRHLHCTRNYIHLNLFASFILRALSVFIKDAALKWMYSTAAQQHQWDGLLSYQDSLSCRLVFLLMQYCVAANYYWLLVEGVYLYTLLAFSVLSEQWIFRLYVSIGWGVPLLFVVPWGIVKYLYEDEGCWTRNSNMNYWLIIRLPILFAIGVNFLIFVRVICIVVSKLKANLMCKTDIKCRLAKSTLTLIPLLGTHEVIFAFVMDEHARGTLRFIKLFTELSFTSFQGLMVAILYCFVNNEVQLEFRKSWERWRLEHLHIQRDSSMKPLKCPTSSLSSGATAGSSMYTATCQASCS

[11] = biological target: G-protein coupled receptor 146 (Homo sapiens) (UniProt Q96CH1); test: Activation of human GPR146 expressed in CHO-K1 cells assessed as increase in dynamic mass redistribution response at 100 uM by DMR assay; format: cell-based
[12] = biological target: Glucagon-like peptide 1 receptor (Homo sapiens) (UniProt P43220); test: Activation of human GLP1R expressed in CHO-K1 cells assessed as increase in dynamic mass redistribution response at 100 uM by DMR assay; format: cell-based

Chain of G-protein coupled receptor 146 (Homo sapiens) (Q96CH1 whole entry): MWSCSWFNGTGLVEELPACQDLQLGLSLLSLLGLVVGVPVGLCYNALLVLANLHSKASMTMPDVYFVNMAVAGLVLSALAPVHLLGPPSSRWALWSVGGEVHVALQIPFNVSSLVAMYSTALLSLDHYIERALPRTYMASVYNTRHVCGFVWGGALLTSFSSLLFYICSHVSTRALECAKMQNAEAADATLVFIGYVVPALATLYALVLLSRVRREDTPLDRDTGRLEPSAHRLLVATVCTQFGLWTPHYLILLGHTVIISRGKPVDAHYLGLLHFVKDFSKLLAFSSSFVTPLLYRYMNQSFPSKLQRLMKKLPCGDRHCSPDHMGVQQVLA

Molecule	Activity [1]	Activity [2]	Activity [3]	Drug uptake [4]	Activity [5]	Drug uptake [6]	Drug uptake [7]	Activity [8]	Activity [9]	Activity [10]	Activity [11]	Activity [12]
C[N+](C)(C)CCOC(N)=O	Active	Active										
H-EGSLQ-OH			inactive	Not Active	inactive	Not Active	Not Active	inactive	Active	Active		
H-EVEDPQVEQLELGGSPGDLQTLALEVARQ-OH			inactive	Not Active	inactive	Not Active	Not Active	inactive	Active	Active		
H-EVARQ-OH			inactive	Not Active		Not Active	Not Active	inactive		Active	Active	
H-GADQPVGSEQQVQAGGLEGGLLLGLELPSEA-OH			inactive	Not Active	inactive	Not Active	Not Active	inactive	Active	Active		
CC(C)C[C@H](NC(=O)[C@H](C)NC(=O)[C@H](CC(C)C)NC(=O)[C@@H]1CCCN1C(=O)[C@H](CCC(N)=O)NC(=O)[C@H](CC(C)C)NC(=O)[C@H](CO)NC(=O)CNC(=O)[C@H](C)NC(=O)CNC(=O)[C@@H]1CCCN1C(=O)CNC(=O)CNC(=O)CNC(=O)[C@H](CC(C)C)NC(=O)[C@H](CCC(=O)O)NC(=O)[C@@H](NC(=O)[C@H](CCC(N)=O)NC(=O)CNC(=O)[C@@H](NC(=O)[C@H](CCC(N)=O)NC(=O)[C@H](CC(C)C)NC(=O)[C@H](CC(=O)O)NC(=O)[C@H](CCC(=O)O)NC(=O)[C@H](C)NC(=O)[C@@H](N)CCC(=O)O)C(C)C)C(C)C)C(=O)N[C@@H](CCC(=O)O)C(=O)NCC(=O)N[C@@H](CO)C(=O)N[C@@H](CC(C)C)C(=O)N[C@@H](CCC(N)=O)C(=O)O [HUMAN C-PEPTIDE]			inactive	Not Active	inactive	Not Active	Not Active	inactive			Active	inactive

— ChEMBL document CHEMBL4622857, “Is GPR146 really the receptor for proinsulin C-peptide?” (Bioorg Med Chem Lett, 2020)
